Consider 11 compounds from patent US20240109855A1, “ANTI-QUORUM SENSING, ANTI-BIOFILM, AND INFLAMMATION ATTENUATING COMPOUNDS, COMPOSITIONS, AND METHODS OF USING SAME” (priority 2021, published 2024).

Entries after “also recorded” stand apart in the source; their conditions may differ.

Data set [1] concerns Agrobacterium tumefaciens (KYC55). In words: Quorum sensing inhibition test with bio-reporter KYC55 (TLC overlay). As to Degree of QSI of KYC55: key: −: no inhibition; +: low inhibition; ++: medium inhibition; +++: strong inhibition. As to Degree of quorum sensing inhibition (QSI), KYC55: key: −: no inhibition; +: low inhibition; ++: medium inhibition; +++: strong inhibition. The format is cell-based. As to conditions: for Degree of QSI of KYC55: Table 1, coumaperine derivatives, 40 mM in ~20 μL acetonitrile dried on TLC plate, overnight, color intensity; for QSI activity against KYC55, in words: running text. The protocol:
(§1) TLC preparation: all derivatives were dissolved in 100% acetonitrile to a concentration of 40 mM. Then placed 20 μlon the same spot on the TLC and let the solvent evaporate before use. CV026: few colonies were transferred to liquid LB (Lenox) for overnight incubation at 30° C. in a 45 degree in orbital shaker. At the O.D. 0.8 3 ml of the starter was added to preheated soft LB agar containing 500 nM of 3-oxo-C6 (Sigma-Aldrich). The mixture was then loaded on the TLC in a glass plate for O.N. incubation in 30° C. The next day inhibition zone was measured, while QS is taking place bacteria produce purple pigment, and when QS is inhibited no pigment is produced. KYC55 (pJZ372) (pJZ384) (pJZ410): 20 μl from the frozen stock into 25 ml AT media (AT buffer×20: 1.57 M KH2PO4 pH=7.3. AT salts mix×20: 300 mM (NH4)2SO4, 13 mM MgSO4, 1.4 mM CaCl2, 0.4 mM FeSO4·7H2O, 0.26 mM MnSO4·H2O. AT media: 50 ml×20 AT-buffer, 50 ml×20 AT-salts, 10 ml 50% (w/v) glucose, add 890 ml to final volume of 1 liter.) For O.N. at 30° C. in an orbital shaker. Into preheated water agar with 25 ml AT-buffer, and 60 μg/ml X-gal and 5 nM 3-oxo-c8 (both from Sigma-Aldrich) 25 ml of the starter was added. Then, that mixture was loaded on the TLC in glass plate for O.N. incubation in 30° C. The next day the inhibition zone was measured. The bacteria produce blue pigment during QS and when QS is inhibited no pigment is produced. KYC55 (pJZ372) (pJZ384) (pJZ410) preservation in tetracycline (1 μg/ml), spectinomycin (100 μg/ml), gentamicin (100 μg/ml) (all antibiotics from Sigma Aldrich) in AT media O.N. then centrifuged and suspend in 15% glycerol frozen and maintained at −80° C.

Data set [2] deals with Chromobacterium violaceum (CV026). The data set is described as follows: Quorum sensing inhibition test with bio-reporter CV026 (TLC overlay). As to Degree of QSI of CV026: key: −: no inhibition; +: low inhibition; ++: medium inhibition; +++: strong inhibition. As to Degree of quorum sensing inhibition (QSI), CV026: key: −: no inhibition; +: low inhibition; ++: medium inhibition; +++: strong inhibition. The settings on record: for Degree of QSI of CV026: Table 1, coumaperine derivatives, 40 mM in ~20 μL acetonitrile dried on TLC plate, overnight, color intensity; for QSI activity against CV026, in words: running text. The class given is cell-based. The protocol:
as §1

The test system of data set [3] is L428 cells. In words: in vitro. The protocol: The human Hodgkin's Lymphoma derived L428 cell line was used as a model. The cells were grown in RPMI Medium 1640 with 10% FBS, 1% Glutamine and pen-strep (all from Biological Industries, Israel). […] Thirty thousand (30,000) cells/well were placed in 96-well plates with the coumaperine derivatives at different concentrations or with vehicle (DMSO) at a final volume of 200 μl. The plates were incubated for 48 hrs. at 37° C. and 5% CO2 followed by the addition of 50 μl of the XTT reagent tetrazolium-formazan, (Biological Industries, Israel) was added for 2 hrs. at 37° C., 5% CO2. In living cells, mitochondria […] the tetrazolium-formazan salt, thereby generating a color absorbing product at 450 nm. Absorbance was measured at 450 nm and 650 nm in an enzyme-linked immunosorbent assay (ELISA) plate reader (Multiskan Spectrum, Version 1.2), and recorded. Absorption values at 650 nm were subtracted from the blank and the 450 nm values. The results were normalized to the control (treated with DMSO).
Viability was determined in triplicate in two independent tests. The results were normalized to vehicle (DMSO) treated cells, (100% viability). Mean+SD.

Where [4] appears, read: Table 2, piperlongumine derivatives.

With `COc1ccc(/C=C/C(=O)N2CCCCC2)cc1OC` [CP-289], in data set [1], the “Degree of QSI of KYC55” value is reported as “+++” and the “QSI activity against KYC55, in words” value is on record as “more effective against KYC55 than CV026”. Further, the “Degree of QSI of CV026” value in data set [2] is recorded as “+”. In data set [3], the “Cytotoxic activity, in words” value is listed as “no cytotoxic activity” and the LC50 result is on record as “Non-toxic”.
Consider `COc1ccc(/C=C/C(=O)N2CCCCC2)cc1` [CP-282], for which the “Degree of QSI of KYC55” value in data set [1] is listed as “++”. For the same compound, in data set [2], the “Degree of QSI of CV026” value is “+++” and the “QSI activity against CV026, in words” value is “more effective against CV026 than KYC55”. Further, in data set [3], the “Cytotoxic activity, in words” value was “no cytotoxic activity” and the LC50 result is on record as “Non-toxic”.
For the compound `COc1cc(/C=C/C(=O)NCc2ccccc2)cc(OC)c1OC` [PL-20, (E)-N-benzyl-3-(3,4,5-trimethoxyphenyl)acrylamide], the “Degree of quorum sensing inhibition (QSI), KYC55” value in data set [1] (setting [4]) is on record as “−”. Moreover, the “QSI activity against KYC55, in words” value in data set [1] is “inactive”. Besides, the “Degree of quorum sensing inhibition (QSI), CV026” value in data set [2] (setting [4]) was “++”. The “QSI activity against CV026, in words” value in data set [2] was “moderate activity”. Further, the LC50 entry in data set [3] is on record as “Non-toxic”.
On to `O=C(/C=C/C=C/c1cc(O)c(O)c(O)c1)N1CCCCC1` [CP-262-F2, (2E,4E)-1-(piperidin-1-yl)-5-(3,4,5-trihydroxyphenyl)penta-2,4-dien-1-one], for which, in data set [1], the “Degree of QSI of KYC55” value is “+” and the “QSI activity against KYC55, in words” value is on record as “low activity”. Also, in data set [2], the “Degree of QSI of CV026” value was “−” and the “QSI activity against CV026, in words” value is “inactive”.
As to `O=C(/C=C/C=C/c1ccc(O)cc1)N1CCCCC1` [CP, (2E,4E)-5-(4-hydroxyphenyl)-1-(piperidin-1-yl)penta-2,4-dien-1-one], the “QSI activity against KYC55, in words” value in data set [1] was “inactivity”. For the same compound, the “QSI activity against CV026, in words” value in data set [2] is “low activity”.
`O=C(/C=C/C=C/c1ccc(O)c(O)c1)N1CCCCC1` [CP-209, (2E,4E)-5-(3,4-dihydroxyphenyl)-1-(piperidin-1-yl)penta-2,4-dien-1-one]: in data set [1], the “Degree of QSI of KYC55” value is “+” and the “QSI activity against KYC55, in words” value was “low activity; also recorded: inactive”. Further, in data set [2], the “Degree of QSI of CV026” value was “+” and the “QSI activity against CV026, in words” value was “low activity; also recorded: inactive”.
As for `O=C(/C=C/C=C/C=C/c1ccc(O)c(O)c1)N1CCCCC1` [CP-239A, (2E,4E,6E)-7-(3,4-dihydroxyphenyl)-1-(piperidin-1-yl)hepta-2,4,6-trien-1-one], in data set [1], the “Degree of QSI of KYC55” value is “−” and the “QSI activity against KYC55, in words” value is “inactive”. For the same compound, in data set [2], the “Degree of QSI of CV026” value is on record as “−” and the “QSI activity against CV026, in words” value was “inactive”.
As to `COc1cc(/C=C/C(=O)N2CCCCC2)ccc1O` [CP-293], in data set [1], the “Degree of QSI of KYC55” value is given as “−” and the “QSI activity against KYC55, in words” value is “inactive”. In data set [2], the “Degree of QSI of CV026” value was “−” and the “QSI activity against CV026, in words” value is “inactive”.
For `COc1cc(/C=C/C(=O)N2CCCCC2=O)cc(OC)c1OC` [PL-31], the “Degree of quorum sensing inhibition (QSI), KYC55” value in data set [1] (setting [4]) is given as “−”. Moreover, in data set [1], the “QSI activity against KYC55, in words” value was “inactive”. The “Degree of quorum sensing inhibition (QSI), CV026” value in data set [2] (setting [4]) is reported as “+”. Further, in data set [2], the “QSI activity against CV026, in words” value is given as “low activity”.
As for `COc1cc(OC)c(/C=C/C=C/C(=O)N2CCCCC2)c(OC)c1` [CP-194, (2E,4E)-1-(piperidin-1-yl)-5-(2,4,6-trimethoxyphenyl)penta-2,4-dien-1-one], in data set [1], the “Degree of QSI of KYC55” value was “−” and the “QSI activity against KYC55, in words” value was “inactive”. Further, in data set [2], the “Degree of QSI of CV026” value is reported as “−” and the “QSI activity against CV026, in words” value was “inactive”.
For the compound `COc1cc(CCC(=O)CC(=O)CCc2ccc(OC(C)=O)c(OC)c2)ccc1OC(C)=O` [AC-THC, Diacetylated Tetrahydrocurcumin], in data set [1] (Table 3, curcumin derivatives), the “Degree of quorum sensing inhibition (QSI), KYC55” value is recorded as “−”. The “QSI activity against KYC55, in words” value in data set [1] is “inactive”. Moreover, in data set [2] (Table 3, curcumin derivatives), the “Degree of quorum sensing inhibition (QSI), CV026” value is “−”. Further, in data set [2], the “QSI activity against CV026, in words” value was “inactive”.
